# Laboratory results from paper PMC4019636, “Rational Design of Berberine-Based FtsZ Inhibitors with Broad-Spectrum Antibacterial Activity” (PLoS ONE, 2014).
# Where two headings read alike, the source gives them in different places.
# Key:
# S. aureus FtsZ = biological target: T1, S. aureus FtsZ (Staphylococcus aureus, UniProt P0A031); experiment: Light scattering assay of FtsZ polymerization; format: biochemical; conditions: 1 mM compound; negative control
# T1 construct: made in house; host or cells: E. coli BL21(DE3)
# T1 sequence (P0A031 1-390): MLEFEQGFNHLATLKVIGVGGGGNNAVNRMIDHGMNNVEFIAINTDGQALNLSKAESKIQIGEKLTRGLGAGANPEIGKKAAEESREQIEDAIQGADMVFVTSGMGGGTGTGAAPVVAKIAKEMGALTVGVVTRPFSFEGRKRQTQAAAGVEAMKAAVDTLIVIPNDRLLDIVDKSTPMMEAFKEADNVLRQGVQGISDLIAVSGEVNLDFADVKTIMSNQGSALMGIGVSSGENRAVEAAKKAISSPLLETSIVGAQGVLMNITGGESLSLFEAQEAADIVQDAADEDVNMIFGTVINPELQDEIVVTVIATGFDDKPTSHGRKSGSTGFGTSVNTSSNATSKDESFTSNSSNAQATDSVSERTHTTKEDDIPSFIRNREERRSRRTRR
# Experimental: E. coli BL21(DE3) cells were transformed with the pRSET-A-S vector carrying S. aureus FtsZ with a 6-histidine tag attached at its N-terminus under the control of a T7 promoter. […] When the OD600 reached 0.8, protein expression was induced with 0.4 mM isopropyl-β-D-thiogalactopyranoside (IPTG) for 4 h. Cells were harvested by centrifugation at 9000 rpm for 20 min at 4°C. The cell pellet was resuspended in 20 mL of solubilization buffer (50 mM Tris-HCl, 150 mM NaCl, 1 mM PMSF and 1 mM EDTA, pH 7.4) and then lysed with 1 mg/mL of lysozyme. The mixture was incubated for 1 h on ice. The cells were disrupted by sonication and the crude lysate obtained was centrifuged at 13,000 rpm for 1 h at 4°C. The supernatant containing 6-histidine tagged S. aureus FtsZ was collected and loaded onto a nickel charged HiTrap chelating column pre-equilibrated with starting buffer (20 mM sodium phosphate buffer, 0.5 M NaCl, pH 7.4). The column was then washed with 8 column volumes of the starting buffer to remove the unbound proteins, and the histidine-tagged enzyme was eluted by a linear gradient of 0−0.2 M imidazole. Fractions containing S. aureus FtsZ were pooled, buffer-exchanged with 20 mM NH4HCO3 (pH 8.0) at 4°C, lyophilized, and stored at −20°C. A stock solution of S. aureus FtsZ for the subsequent bioassay was prepared from the lyophilized powder.
# The light scattering assay was performed using a protocol adapted from the literature. The polymerization and depolymerization of recombinant S. aureus FtsZ was measured using 90° light scattering in a thermostatically (37°C) controlled fluorescence spectrometer (Perkin Elmer, USA). Both excitation and emission wavelengths were set to 600 nm with a slit width of 2.5 nm. S. aureus FtsZ (6 µM) in 50 mM of MOPS buffer (pH 6.5) was incubated with vehicle (1% DMSO) or different concentrations of the test compound for 10 min at 25°C. 50 mM KCl and 10 mM MgCl2 were then added to establish a baseline. After 8 min, a final concentration of 1 mM GTP was added at the last fraction and the increase in light scattering was measured for an additional 2000s. The rate and extent of polymerization were measured. Appropriate blanks were subtracted from all experimental data. Moreover, in order to rule out unselective inhibition by formation of aggregates, control experiments with 0.01% (v/v) Triton X-100 from a freshly prepared 1% (v/v) stock solution were performed for berberine and compound 2 [40], [41]. Reported results are the average of three independent experiments.
# S. aureus ATCC BAA-41 = experiment: Antimicrobial susceptibility assay (broth microdilution MIC); format: cell-based; conditions: Staphylococcus aureus
# Source text: (§1) The bacterial strains S. aureus ATCC 29213, S. aureus ATCC 29247, S. aureus ATCC BAA-41, E. faecium ATCC 49624, E. faecium ATCC 700221, E. faecalis ATCC 29212, S. epidermidis ATCC 12228, E. coli ATCC 25922, and K. pneumoniae ATCC BAA-1144 used in the antimicrobial susceptibility assays were purchased from American Type Culture Collection (ATCC, USA). B. subtilis strain 168 was already available in our in-house collection. E. coli JM109 WM647 was kindly provided by Dr. W. Margolin (University of Texas-Houston Medical School). FM 4–64 was purchased from Invitrogen (Eugene, Oregon). All other chemicals and reagents were purchased from Sigma-Aldrich. Stock solutions were prepared in DMSO. The final percentage of DMSO in the assays was 1% (v/v) for all experiments.
# (§2) Antimicrobial susceptibility tests were conducted in 96-well microplates using the broth microdilution procedure described in the Clinical and Laboratory Standards Institute (CLSI) guidelines. Cation-adjusted Mueller Hinton broth for S. aureus strain ATCC 29213, methicillin-resistant S. aureus strain ATCC BAA-41 and ampicillin-resistant S. aureus strain ATCC 29247, or brain heart infusion broth for antibiotic-susceptible E. faecium strain ATCC 49624 and vancomycin-resistant E. faecium strain ATCC 700221, or Mueller Hinton broth for antibiotic-susceptible strains B. subtilis strain 168, E. faecalis strain ATCC 29212 and E. coli strain ATCC 25922 were used in the assays. After incubation for 18 h at 37°C, the absorbance at 600 nm (A600) was recorded using a microplate reader (Bio-Rad laboratory Ltd., UK) and the percentage of bacterial cell inhibition with respect to vehicles (1% DMSO) was calculated. The MIC was defined as the lowest compound concentration at which the growth of bacteria was inhibited by ≥90%. Three independent assays were performed for each test.
# S. aureus ATCC 29247 = experiment: as above; format: cell-based; conditions: Staphylococcus aureus
# Source text: as §1, §2
# E. coli ATCC 25922 = experiment: as above; format: cell-based; conditions: Escherichia coli
# Source text: as §1, §2
# [1] = test system: S. epidermidis ATCC 12228; experiment: as above; format: cell-based; conditions: Staphylococcus epidermidis
# Source text: as §1, §2
# [2] = test system: K. pneumoniae ATCC BAA-1144; experiment: as above; format: cell-based; conditions: Klebsiella pneumoniae
# Source text: as §1, §2
# E. faecalis ATCC 29212 = experiment: as above; format: cell-based; conditions: Enterococcus faecalis
# Source text: as §1, §2
# S. aureus ATCC 29213 = experiment: as above; format: cell-based; conditions: Staphylococcus aureus
# Source text: as §1, §2
# B. subtilis 168 = experiment: as above; format: cell-based
# Source text: as §1, §2
# E. faecium ATCC 700221 = experiment: as above; format: cell-based; conditions: Enterococcus faecium
# Source text: as §1
# (§3) Antimicrobial susceptibility tests were conducted in 96-well microplates using the broth microdilution procedure described in the Clinical and Laboratory Standards Institute (CLSI) guidelines. […] After incubation for 18 h at 37°C, the absorbance at 600 nm (A600) was recorded using a microplate reader (Bio-Rad laboratory Ltd., UK) and the percentage of bacterial cell inhibition with respect to vehicles (1% DMSO) was calculated. The MIC was defined as the lowest compound concentration at which the growth of bacteria was inhibited by ≥90%. Three independent assays were performed for each test.
# E. faecium ATCC 49624 = experiment: as above; format: cell-based; conditions: Enterococcus faecium
# Source text: as §1, §3
# [3] = ATCCBAA41, S. aureus ATCC BAA-41 (methicillin-resistant), 18 h at 37°C, growth inhibited by ≥90%, read-out: MIC
# [4] = ATCC29247, S. aureus ATCC 29247 (ampicillin-resistant), 18 h at 37°C, growth inhibited by ≥90%, read-out: MIC
# [5] = ATCC25922, E. coli ATCC 25922, Mueller Hinton broth, 18 h at 37°C, growth inhibited by ≥90%, read-out: MIC
# [6] = ATCC12228, S. epidermidis ATCC 12228, 18 h at 37°C, growth inhibited by ≥90%, read-out: MIC
# [7] = ATCCBAA1144, K. pneumoniae ATCC BAA-1144 (Gram-negative, expressing AmpC β-lactamase), 18 h at 37°C, growth inhibited by ≥90%, read-out: MIC
# [8] = ATCC29212, E. faecalis ATCC 29212, Mueller Hinton broth, 18 h at 37°C, growth inhibited by ≥90%, read-out: MIC
# [9] = ATCC29213, S. aureus ATCC 29213, cation-adjusted Mueller Hinton broth, 18 h at 37°C, growth inhibited by ≥90%, read-out: MIC
# [10] = Bacillus subtilis, B. subtilis 168, Mueller Hinton broth, 18 h at 37°C, growth inhibited by ≥90%, read-out: MIC
MIC (S. aureus ATCC BAA-41; [3]) [µg/mL],MIC (S. aureus ATCC 29247; [4]) [µg/mL],MIC (E. coli ATCC 25922; [5]) [µg/mL],"MIC [1, 6] [µg/mL]","MIC [2, 7] [µg/mL]",MIC (E. faecalis ATCC 29212; [8]) [µg/mL],MIC (S. aureus ATCC 29213; [9]) [µg/mL],MIC (B. subtilis 168; [10]) [µg/mL],SMILES,also measured
> 96,48,6,3,> 96,6,1.5,0.1,"CC1(C)S[C@@H]2[C@H](NC(=O)[C@H](N)c3ccccc3)C(=O)N2[C@H]1C(=O)O [Ampicillin, reference compound]",effect on the polymerization of S. aureus FtsZ (S. aureus FtsZ): no effect
196,112,384,112,> 384,> 196,112,112,COc1ccc2cc3[n+](cc2c1OCCCBr)CCc1cc2c(cc1-3)OCO2 [Compound 7],"MIC (E. faecium ATCC 700221; ATCC700221, E. faecium ATCC 700221 (vancomycin-resistant), brain heart infusion broth, 18 h at 37°C, growth inhibited by ≥90%, read-out: MIC): > 196 µg/mL; MIC (E. faecium ATCC 49624; ATCC49624, E. faecium ATCC 49624, brain heart infusion broth, 18 h at 37°C, growth inhibited by ≥90%, read-out: MIC): > 196 µg/mL"
,,,,,,,,"CN[C@H](CC(C)C)C(=O)N[C@H]1C(=O)N[C@@H](CC(N)=O)C(=O)N[C@H]2C(=O)N[C@H]3C(=O)N[C@H](C(=O)N[C@H](C(=O)O)c4cc(O)cc(O)c4-c4cc3ccc4O)[C@H](O)c3ccc(c(Cl)c3)Oc3cc2cc(c3O[C@@H]2O[C@H](CO)[C@@H](O)[C@H](O)[C@H]2O[C@H]2C[C@](C)(N)[C@H](O)[C@H](C)O2)Oc2ccc(cc2Cl)[C@H]1O [Vancomycin, vancomycin, reference compound]","MIC (E. faecium ATCC 700221; ATCC700221, 18 h): > 96 µg/mL; MIC (E. faecium ATCC 49624; ATCC49624, 18 h): 1 µg/mL; MIC (S. aureus ATCC BAA-41; ATCCBAA41, 18 h): 2 µg/mL; MIC (S. aureus ATCC 29247; ATCC29247, 18 h): 1 µg/mL; MIC (E. coli ATCC 25922; ATCC25922, 18 h): 2 µg/mL; MIC ([1]; ATCC12228, 18 h): 1 µg/mL; MIC ([2]; ATCCBAA1144, 18 h): 6 µg/mL; MIC (E. faecalis ATCC 29212; ATCC29212, 18 h): 1 µg/mL; MIC (S. aureus ATCC 29213; ATCC29213, 18 h): 1 µg/mL; MIC (B. subtilis 168; Bacillus subtilis, 168, 18 h): 1 µg/mL"
